# Data reported in PubChem BioAssay (NCI).
#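 Tested at 5 concentrations; 48 h exposure; 96-well plates; endpoints linearly interpolated, else capped at highest concentration. GI50 is the concentration that inhibits growth by half. The concentration for full growth arrest is given as TGI.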
# Tests used:
# Test in all cases: NCI-60 cell line screen, 48 h
# EKVX NSCLC = tested on: EKVX NSCLC
# RPMI-8226 leukemia = tested on: RPMI-8226 leukemia
# MALME-3M melanoma = tested on: MALME-3M melanoma
# MDA-MB-435 = tested on: MDA-MB-435
# 786-0 renal = tested on: 786-0 renal
# HL-60(TB) leukemia = tested on: HL-60(TB) leukemia
# SF-539 CNS = tested on: SF-539 CNS
# RXF 393 renal = tested on: RXF 393 renal
# NCI-H460 lung = tested on: NCI-H460 lung
# SF-295 CNS = tested on: SF-295 CNS
# CCRF-CEM leukemia = tested on: CCRF-CEM leukemia
# PC-3 prostate = tested on: PC-3 prostate
# DU-145 prostate = tested on: DU-145 prostate
# UO-31 renal = tested on: UO-31 renal
# MDA-MB-231 breast = tested on: MDA-MB-231 breast
# SF-268 CNS = tested on: SF-268 CNS
# NCI/ADR-RES ovarian = tested on: NCI/ADR-RES ovarian
# HCT-116 colon = tested on: HCT-116 colon
# M14 melanoma = tested on: M14 melanoma
# HT29 colon = tested on: HT29 colon
# HCT-15 colon = tested on: HCT-15 colon
# COLO 205 colon = tested on: COLO 205 colon
# UACC-257 melanoma = tested on: UACC-257 melanoma
# OVCAR-5 ovarian = tested on: OVCAR-5 ovarian
# TK-10 renal = tested on: TK-10 renal
# BT-549 breast = tested on: BT-549 breast
# OVCAR-4 ovarian = tested on: OVCAR-4 ovarian
# KM12 colon = tested on: KM12 colon
# SK-OV-3 ovarian = tested on: SK-OV-3 ovarian
# SK-MEL-2 melanoma = tested on: SK-MEL-2 melanoma
# MOLT-4 leukemia = tested on: MOLT-4 leukemia
# OVCAR-3 ovarian = tested on: OVCAR-3 ovarian
# HOP-62 NSCLC = tested on: HOP-62 NSCLC
# SNB-75 CNS = tested on: SNB-75 CNS
# SK-MEL-5 melanoma = tested on: SK-MEL-5 melanoma
# LOX IMVI melanoma = tested on: LOX IMVI melanoma
# NCI-H522 lung = tested on: NCI-H522 lung
# SNB-19 CNS = tested on: SNB-19 CNS
# HOP-92 NSCLC = tested on: HOP-92 NSCLC
# ACHN renal = tested on: ACHN renal
# K-562 leukemia = tested on: K-562 leukemia
# SK-MEL-28 melanoma = tested on: SK-MEL-28 melanoma
# A498 renal = tested on: A498 renal
# SN12C renal = tested on: SN12C renal
# IGROV1 ovarian = tested on: IGROV1 ovarian
# OVCAR-8 ovarian = tested on: OVCAR-8 ovarian
# CAKI-1 renal = tested on: CAKI-1 renal
# HCC-2998 colon = tested on: HCC-2998 colon
# A549 NSCLC = tested on: A549 NSCLC
# SR leukemia = tested on: SR leukemia
# NCI-H226 lung = tested on: NCI-H226 lung
# U251 CNS = tested on: U251 CNS
# UACC-62 melanoma = tested on: UACC-62 melanoma
# NCI-H23 lung = tested on: NCI-H23 lung
# HS 578T breast = tested on: HS 578T breast
# T-47D breast = tested on: T-47D breast
# SW-620 colon = tested on: SW-620 colon
# MCF7 breast = tested on: MCF7 breast
compound,measurement,setting,value
COC(=O)CCC1=C(C)C(C)=N/C1=C\c1[nH]c(-c2ccc[nH]2)cc1OC,GI50,EKVX NSCLC,0.712 µM
same,TGI,EKVX NSCLC,14.3 µM
same,GI50,RPMI-8226 leukemia,0.356 µM
same,TGI,RPMI-8226 leukemia,1.92 µM
same,GI50,MALME-3M melanoma,2.01 µM
same,TGI,MALME-3M melanoma,7.09 µM
same,GI50,MDA-MB-435,0.472 µM
same,TGI,MDA-MB-435,5.34 µM
same,GI50,786-0 renal,0.456 µM
same,TGI,786-0 renal,2.95 µM
same,GI50,HL-60(TB) leukemia,0.567 µM
same,TGI,HL-60(TB) leukemia,3.34 µM
same,GI50,SF-539 CNS,0.639 µM
same,TGI,SF-539 CNS,6.38 µM
same,GI50,RXF 393 renal,0.242 µM
same,TGI,RXF 393 renal,1.06 µM
same,GI50,NCI-H460 lung,0.49 µM
same,TGI,NCI-H460 lung,12.1 µM
same,GI50,SF-295 CNS,0.724 µM
same,TGI,SF-295 CNS,4.28 µM
same,GI50,CCRF-CEM leukemia,0.403 µM
same,TGI,CCRF-CEM leukemia,13.6 µM
same,GI50,PC-3 prostate,0.633 µM
same,TGI,PC-3 prostate,14.4 µM
same,GI50,DU-145 prostate,0.88 µM
same,TGI,DU-145 prostate,14.9 µM
same,GI50,UO-31 renal,0.479 µM
same,TGI,UO-31 renal,2.55 µM
same,GI50,MDA-MB-231 breast,0.228 µM
same,TGI,MDA-MB-231 breast,2.09 µM
same,GI50,SF-268 CNS,0.935 µM
same,TGI,SF-268 CNS,16.2 µM
same,GI50,NCI/ADR-RES ovarian,0.476 µM
same,TGI,NCI/ADR-RES ovarian,13.2 µM
same,GI50,HCT-116 colon,0.326 µM
same,TGI,HCT-116 colon,1.26 µM
same,GI50,M14 melanoma,0.548 µM
same,TGI,M14 melanoma,12.2 µM
same,GI50,HT29 colon,0.277 µM
same,TGI,HT29 colon,3.85 µM
same,GI50,HCT-15 colon,0.262 µM
same,TGI,HCT-15 colon,3.15 µM
same,GI50,COLO 205 colon,0.394 µM
same,TGI,COLO 205 colon,1.48 µM
same,GI50,UACC-257 melanoma,1.44 µM
same,TGI,UACC-257 melanoma,9.86 µM
same,GI50,OVCAR-5 ovarian,0.49 µM
same,TGI,OVCAR-5 ovarian,12.2 µM
same,GI50,TK-10 renal,0.93 µM
same,TGI,TK-10 renal,10.1 µM
same,GI50,BT-549 breast,0.621 µM
same,TGI,BT-549 breast,13.4 µM
same,GI50,OVCAR-4 ovarian,0.371 µM
same,TGI,OVCAR-4 ovarian,7.46 µM
same,GI50,KM12 colon,0.393 µM
same,TGI,KM12 colon,6.39 µM
same,GI50,SK-OV-3 ovarian,2.82 µM
same,TGI,SK-OV-3 ovarian,15.9 µM
same,GI50,SK-MEL-2 melanoma,0.363 µM
same,TGI,SK-MEL-2 melanoma,1.21 µM
same,GI50,MOLT-4 leukemia,0.567 µM
same,TGI,MOLT-4 leukemia,16.4 µM
same,GI50,OVCAR-3 ovarian,0.478 µM
same,TGI,OVCAR-3 ovarian,2.41 µM
same,GI50,HOP-62 NSCLC,0.471 µM
same,TGI,HOP-62 NSCLC,1.72 µM
same,GI50,SNB-75 CNS,0.434 µM
same,TGI,SNB-75 CNS,3.62 µM
same,GI50,SK-MEL-5 melanoma,0.145 µM
same,TGI,SK-MEL-5 melanoma,0.315 µM
same,GI50,LOX IMVI melanoma,0.221 µM
same,TGI,LOX IMVI melanoma,0.609 µM
same,GI50,NCI-H522 lung,0.515 µM
same,TGI,NCI-H522 lung,1.91 µM
same,GI50,SNB-19 CNS,1.89 µM
same,TGI,SNB-19 CNS,17 µM
same,GI50,HOP-92 NSCLC,0.211 µM
same,TGI,HOP-92 NSCLC,0.649 µM
same,GI50,ACHN renal,0.41 µM
same,TGI,ACHN renal,2.76 µM
same,GI50,K-562 leukemia,0.462 µM
same,TGI,K-562 leukemia,24.2 µM
same,GI50,SK-MEL-28 melanoma,1.85 µM
same,TGI,SK-MEL-28 melanoma,8.47 µM
same,GI50,A498 renal,3.35 µM
same,TGI,A498 renal,15.8 µM
same,GI50,SN12C renal,0.805 µM
same,TGI,SN12C renal,14.3 µM
same,GI50,IGROV1 ovarian,1.06 µM
same,TGI,IGROV1 ovarian,17.4 µM
same,GI50,OVCAR-8 ovarian,0.334 µM
same,TGI,OVCAR-8 ovarian,12.4 µM
same,GI50,CAKI-1 renal,0.338 µM
same,TGI,CAKI-1 renal,6.36 µM
same,GI50,HCC-2998 colon,0.464 µM
same,TGI,HCC-2998 colon,14.6 µM
same,GI50,A549 NSCLC,0.368 µM
same,TGI,A549 NSCLC,10.2 µM
same,GI50,SR leukemia,0.352 µM
same,GI50,NCI-H226 lung,0.313 µM
same,TGI,NCI-H226 lung,1.8 µM
same,GI50,U251 CNS,0.419 µM
same,TGI,U251 CNS,2.87 µM
same,GI50,UACC-62 melanoma,0.365 µM
same,TGI,UACC-62 melanoma,1.26 µM
same,GI50,NCI-H23 lung,0.805 µM
same,TGI,NCI-H23 lung,11.4 µM
same,GI50,HS 578T breast,1.06 µM
same,TGI,HS 578T breast,8.15 µM
same,GI50,T-47D breast,0.329 µM
same,TGI,T-47D breast,3.42 µM
same,GI50,SW-620 colon,0.385 µM
same,TGI,SW-620 colon,11.9 µM
same,GI50,MCF7 breast,0.297 µM
same,TGI,MCF7 breast,2.79 µM
